Measured values taken from US20160207930A1 (LEO PHARMA A/S, priority 2013, published 2016).

Assays:
NK1 Receptor = molecular target: T1, NK1 Receptor (Homo sapiens, UniProt P25103); test: NK1 receptor mediated intracellular [Ca2+] mobilization in U251 MG cells using FLIPR; format: cell-based; conditions: antagonism of Substance P (EC80), Fluo-4, read-out: NK1R mediated intracellular [Ca^2+] mobilization IC 50
T1 construct: Measurement of NK1 Receptor Mediated Intracellular [Ca^2+]; Mobilization in U251 MG Cells Using FLIPR; endogenous in cells; host or cells: U251 MG cells
Method in brief: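 Fluo-4-loaded U251 MG cells preincubated with compound (0.5% DMSO final), checked 5 min for agonism, then 10 min at 37 °C before Substance P at EC80. Peak fluorescence change on FLIPR, normalized to 100 nM Aprepitant maximal response; IC50 by four-parameter logistic fit, reported as pIC50.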

[1] = Hepatic intrinsic clearance following incubation in human liver microsomes; format: in vitro ADME; conditions: 0.5 μM test compound, NADPH, 0-30 min, scaled to g liver
Method in brief: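 Compound incubated at 37° C with microsomes diluted to 0.55 mg/mL protein in 50 mM potassium phosphate pH 7.4 plus NADPH regenerating system; sampled 0–30 min and analysed by LC-MS/MS. Clint from ln(% parent remaining) slope, scaled to mL/min/g liver; Eh derived assuming 25.7 g/kg liver, 20.7 mL/min/kg blood flow.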

T1 sequence (P25103 whole entry): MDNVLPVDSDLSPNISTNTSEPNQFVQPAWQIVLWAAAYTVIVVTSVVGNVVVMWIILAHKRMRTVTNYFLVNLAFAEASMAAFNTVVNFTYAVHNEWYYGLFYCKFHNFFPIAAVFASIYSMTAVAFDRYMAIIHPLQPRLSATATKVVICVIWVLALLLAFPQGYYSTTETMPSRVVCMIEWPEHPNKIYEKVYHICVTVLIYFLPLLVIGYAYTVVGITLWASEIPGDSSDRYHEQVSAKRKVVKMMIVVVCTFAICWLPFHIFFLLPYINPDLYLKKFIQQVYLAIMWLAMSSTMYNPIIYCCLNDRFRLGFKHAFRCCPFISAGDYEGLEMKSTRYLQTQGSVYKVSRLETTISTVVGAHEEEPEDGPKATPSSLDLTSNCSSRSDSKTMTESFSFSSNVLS

Row | SMILES | IC50 (NK1 Receptor) | Human in vitro Clint [1]
1 | CCc1cc([C@@H](C)N(C)C(=O)N2CCN3C(=O)CC[C@H]3[C@@H]2c2cscc2C)cc(C(F)(F)F)c1 [Compound 49, (1S,8aS)—N—((R)-1-(3-ethyl-5-(trifluoromethyl)phenyl)ethyl)-N-methyl-1-(4-methylthiophen-3-yl)-6-oxohexahydropyrrolo[1,2-a]pyrazine-2(1H)-carboxamide] | 0.999 nM | >200 mL/min/g
2 | Cc1ccsc1[C@H]1[C@@H]2CCC(=O)N2CCN1C(=O)N(C)[C@H](C)c1cc(C(F)(F)F)cc(C(F)(F)F)c1 [Compound 50] | 0.08 nM | >200 mL/min/g
3 | CCc1cc([C@@H](C)N(C)C(=O)N2CCN3C(=O)CC[C@H]3[C@@H]2c2sccc2C)cc(C(F)(F)F)c1 [Compound 51, (1R,8aS)—N—((R)-1-(3-ethyl-5-(trifluoromethyl)phenyl)ethyl)-N-methyl-1-(3-methylthiophen-2-yl)-6-oxohexahydropyrrolo[1,2-a]pyrazine-2(1H)-carboxamide] | 0.055 nM | >200 mL/min/g
4 | Cc1cc([C@@H](C)N(C)C(=O)N2CCN3C(=O)CC[C@H]3[C@@H]2c2sccc2C)cc(C(F)(F)F)c1 [Compound 52, (1R,8aS)—N-methyl-N—((R)-1-(3-methyl-5-(trifluoromethyl)phenyl)ethyl)-1-(3-methylthiophen-2-yl)-6-oxohexahydropyrrolo[1,2-a]pyrazine-2(1H)-carboxamide] | 0.353 nM | >200 mL/min/g
5 | C[C@H](c1cc(C(F)(F)F)cc(C(F)(F)F)c1)N(C)C(=O)N1CCN2C(=O)CC[C@H]2[C@@H]1c1cccs1 [Compound 53, (1R,8aS)—N—((R)-1-(3,5-bis(trifluoromethyl)phenyl)ethyl)-N-methyl-6-oxo-1-(thiophen-2-yl)hexahydropyrrolo[1,2-a]pyrazine-2(1H)-carboxamide] | 0.43 nM | >200 mL/min/g
6 | CCc1cc([C@@H](C)N(C)C(=O)N2CCN3C(=O)CC[C@H]3[C@@H]2c2cccs2)cc(C(F)(F)F)c1 [Compound 54, (1R,8aS)—N—((R)-1-(3-ethyl-5-(trifluoromethyl)phenyl)ethyl)-N-methyl-6-oxo-1-(thiophen-2-yl)hexahydropyrrolo[1,2-a]pyrazine-2(1H)-carboxamide] | 0.514 nM | >200 mL/min/g
7 | Cc1cc([C@@H](C)N(C)C(=O)N2CCN3C(=O)CC[C@H]3[C@@H]2c2ccsc2C)cc(C(F)(F)F)c1 [Compound 55, (1S,8aS)—N-methyl-N—((R)-1-(3-methyl-5-(trifluoromethyl)phenyl)ethyl)-1-(2-methylthiophen-3-yl)-6-oxohexahydropyrrolo[1,2-a]pyrazine-2(1H)-carboxamide] | 1.58 nM | >200 mL/min/g
8 | CCc1cc([C@@H](C)N(C)C(=O)N2CCN3C(=O)CC[C@H]3[C@@H]2c2ccsc2C)cc(C(F)(F)F)c1 [Compound 56, (1S,8aS)—N—((R)-1-(3-ethyl-5-(trifluoromethyl)phenyl)ethyl)-N-methyl-1-(2-methylthiophen-3-yl)-6-oxohexahydropyrrolo[1,2-a]pyrazine-2(1H)-carboxamide] | 1.51 nM | >200 mL/min/g
9 | Cc1sccc1[C@H]1[C@@H]2CCC(=O)N2CCN1C(=O)N(C)[C@H](C)c1cc(C(F)(F)F)cc(C(F)(F)F)c1 [Compound 57, (1S,8aS)—N—((R)-1-(3,5-bis(trifluoromethyl)phenyl)ethyl)-N-methyl-1-(2-methylthiophen-3-yl)-6-oxohexahydropyrrolo[1,2-a]pyrazine-2(1H)-carboxamide] | 0.152 nM | >200 mL/min/g

Second part, the compound after the results:

Row | IC50 (NK1 Receptor) | Human in vitro Clint [1] | SMILES
10 | 28.6 nM | >200 mL/min/g | Cc1ncc([C@H]2[C@@H]3CCC(=O)N3CCN2C(=O)N(C)[C@H](C)c2cc(C(F)(F)F)cc(C(F)(F)F)c2)s1 [Compound 58, (1R,8aS)—N—((R)-1-(3,5-bis(trifluoromethyl)phenyl)ethyl)-N-methyl-1-(2-methylthiazol-5-yl)-6-oxohexahydropyrrolo[1,2-a]pyrazine-2(1H)-carboxamide]
11 | 29.4 nM | >200 mL/min/g | C[C@H](c1cc(C(F)(F)F)cc(C(F)(F)F)c1)N(C)C(=O)N1CCN2C(=O)CC[C@H]2[C@@H]1c1cncs1 [Compound 59, (1R,8aS)—N—((R)-1-(3,5-bis(trifluoromethyl)phenyl)ethyl)-N-methyl-6-oxo-1-(thiazol-5-yl)-hexahydropyrrolo[1,2-a]pyrazine-2(1H)-carboxamide]
12 | 59 nM | >200 mL/min/g | CCc1cc([C@@H](C)N(C)C(=O)N2CCN3C(=O)CC[C@H]3[C@@H]2c2c[nH]nc2C)cc(C(F)(F)F)c1 [Compound 61, (1S,8aS)—N—((R)-1-(3-ethyl-5-(trifluoromethyl)phenyl)ethyl)-N-methyl-1-(3-methyl-1H-pyrazol-4-yl)-6-oxohexahydropyrrolo[1,2-a]pyrazine-2(1H)-carboxamide]
13 | 1.07 nM | 115 mL/min/g | CCc1cc([C@@H](C)N(C)C(=O)N2CCN3C(=O)C(CCO)(CCO)C[C@H]3[C@@H]2c2c[nH]nc2C)cc(C(F)(F)F)c1 [Compound 62, (1S,8aS)—N—((R)-1-(3-ethyl-5-(trifluoromethyl)phenyl)ethyl)-7,7-bis(2-hydroxyethyl)-N-methyl-1-(3-methyl-1H-pyrazol-4-yl)-6-oxohexahydropyrrolo[1,2-a]pyrazine-2(1H)-carboxamide]
14 | 9.29 nM | 51 mL/min/g | Cc1cc([C@@H](C)N(C)C(=O)N2CCN3C(=O)C(CCO)(CCO)C[C@H]3[C@@H]2c2c[nH]nc2C)cc(C(F)(F)F)c1 [Compound 63, (1S,8aS)-7,7-bis(2-hydroxyethyl)-N-methyl-1-(3-methyl-1H-pyrazol-4-yl)-N—((R)-1-(3-methyl-5-(trifluoromethyl)phenyl)ethyl)-6-oxo-hexahydropyrrolo[1,2-a]pyrazine-2(1H)-carboxamide]
15 | 1.23 nM | 67 mL/min/g | Cc1nn(C)cc1[C@H]1[C@@H]2CCC(=O)N2CCN1C(=O)N(C)[C@H](C)c1cc(C(F)(F)F)cc(C(F)(F)F)c1 [Compound 64, (1S,8aS)—N—((R)-1-(3,5-bis(trifluoromethyl)phenyl)ethyl)-1-(1,3-dimethyl-1H-pyrazol-4-yl)-N-methyl-6-oxohexahydropyrrolo[1,2-a]pyrazine-2(1H)-carboxamide]
16 | 0.365 nM | >200 mL/min/g | Cc1cc([C@@H](C)N(C)C(=O)N2CCN3C(=O)CC[C@H]3[C@@H]2c2cccc(C)c2C)cc(C(F)(F)F)c1 [Compound 65]
17 | 0.14 nM | 51 mL/min/g | Cc1c(Cl)cccc1[C@H]1[C@@H]2CCC(=O)N2CCN1C(=O)N(C)[C@H](C)c1cc(C(F)(F)F)cc(C(F)(F)F)c1 [Compound 66, (1S,8aS)—N—((R)-1-(3,5-bis(trifluoromethyl)phenyl)ethyl)-1-(3-chloro-2-methylphenyl)-N-methyl-6-oxohexahydropyrrolo[1,2-a]pyrazine-2(1H)-carboxamide]
18 | 0.26 nM | >200 mL/min/g | CCc1ccccc1[C@H]1[C@@H]2CCC(=O)N2CCN1C(=O)N(C)[C@H](C)c1cc(C(F)(F)F)cc(C(F)(F)F)c1 [Compound 68, N—((R)-1-(3,5-bis(trifluoromethyl)phenyl)ethyl)-1-(2-ethylphenyl)-N-methyl-6-oxohexahydropyrrolo[1,2-a]pyrazine-2(1H)-carboxamide]
